Measurements from patent publication US6964949B2, “Pharmaceutical compositions for promoting the growth of gram-positive bacilli and increasing the acidity in the vagina and the use thereof” (Shanghai Jiao Da Onlly Co., Ltd., priority 2000, dated 2005).

How the values were obtained:
[1] = system: L. acidophilus, C. albicans, C. tropicalis; experiment: Fluconazole in Sucrose Broth, Group 1 co-culture: turbidity and Gram-stained smear; format: cell-based; design: key to Turbidity, Group 1: ++: The cultural fluid was heavily turbid; +: The cultural fluid was turbid; +/−: The turbidity of the cultural fluid was not affirmative; key to Microbes (Gram-stained smear), Group 1: Lb: Lactobacilli; Candida; conditions: 18 hours, 37° C., candle jar
Method: (§1) • 1. Materials: • Sucrose Broth: 10.0% sucrose, 2.0% yeast extract, K2HPO40.5%, MgSO40.05%, MnSO40.1%, pH adjusted to 6.2, sterilized. • Anti-fungi drug: Fluconazole • Clinically isolated Lactobacillus strains: Lactobacillus acidophilus, Lactobacillus crispatus, and Lactobacillus jensenii. Three lactobacillus suspensions were prepared separately from each of these three lactobacillus strains. • Clinically isolated Candida strains: Candida albicans and Candida tropicalis. Two Candidal suspensions were prepared separately from each of these two candida strains. • 2.
(§2) • There were six tubes in each group and each tube contained 2ml Sucrose Broth and different concentration of Fluconazole, as shown in Table 1. • The turbidity values of three lactobacillus suspensions and two Candidal suspensions were tested by Turbidimeter and adjusted to 0.3. 50 ul of each prepared lactobacillus suspension and Candidal suspension were separately added into tubes according to Table 1. • All of these experimental tubes were put into candle jars as soon as the lactobacillus suspensions and candidal suspensions were added, and then incubated at 37° C. for 18 hours. • After 18 hours' incubation the turbidity of each tube was examined and Gram-stained smear of cultural fluid of corresponding tube was observed under microscopy to check microbes. Results

[2] = system: L. crispatus, C. albicans, C. tropicalis; experiment: Fluconazole in Sucrose Broth, Group 2 co-culture: turbidity and Gram-stained smear; format: cell-based; design: key to Turbidity, Group 2: ++: The cultural fluid was heavily turbid; +: The cultural fluid was turbid; +/−: The turbidity of the cultural fluid was not affirmative; key to Microbes (Gram-stained smear), Group 2: Lb: Lactobacilli; Candida; conditions: 18 hours, 37° C., candle jar
Method: as §1, §2

[3] = system: L. jensenii, C. albicans, C. tropicalis; experiment: Fluconazole in Sucrose Broth, Group 3 co-culture: turbidity and Gram-stained smear; format: cell-based, Lactobacillus jensenii, Candida albicans, Candida tropicalis; design: key to Turbidity, Group 3: ++: The cultural fluid was heavily turbid; +: The cultural fluid was turbid; +/−: The turbidity of the cultural fluid was not affirmative; key to Microbes (Gram-stained smear), Group 3: Lb: Lactobacilli; Candida; conditions: 18 hours, 37° C., candle jar
Method: as §1, §2

[4] = system: C. albicans, C. tropicalis; experiment: Fluconazole in Sucrose Broth, Group 4 (Candidal group): turbidity and Gram-stained smear; format: cell-based, Candida albicans, Candida tropicalis; design: key to Turbidity, Group 4: ++: The cultural fluid was heavily turbid; +: The cultural fluid was turbid; +/−: The turbidity of the cultural fluid was not affirmative; conditions: 18 hours; for Turbidity, Group 4: 37° C., candle jar
Method: as §1, §2

[5] = system: three Lactobacillus strains; experiment: Fluconazole in Sucrose Broth: growth of the three Lactobacillus strains (Groups 1-3); format: cell-based; conditions: 400 ug/ml of Fluconazole, 18 hours
Method: as §1, §2

[6] = system: L. acidophilus, C. albicans, C. tropicalis; experiment: Terconazole in Maltose Broth, Group 1 co-culture: turbidity and Gram-stained smear; format: cell-based; design: key to Turbidity, Group 1: ++: The cultural fluid was heavily turbid; +: The cultural fluid was turbid; +/−: The turbidity of the cultural fluid was not affirmative; key to Microbes (Gram-stained smear), Group 1: Lb: Lactobacilli; Candida; conditions: 18 hours, 37° C., candle jar
Method: (§3) • 1. Materials: • Maltose Broth: 10.0% maltose, 2.0% yeast extract, K2HPO4 0.5%, MgSO4 0.05%, MnSO40.1%, pH adjusted to 6.2, sterilized. • Anti-fungi drug: Terconazole • Clinically isolated Lactobacillus strains: Lactobacillus acidophilus, Lactobacillus crispatus, and Lactobacillus jensenii. Three lactobacillus suspensions were prepared separately from each of these three lactobacillus strains.
(§4) Clinically isolated Candida strains: Candida albicans and Candida tropicalis. Two Candidal suspensions were prepared separately from each of these two candida strains. • 2.
as §2, with “2 ml Maltose” for “2ml Sucrose”, “Terconazole,” for “Fluconazole,”

[7] = system: L. crispatus, C. albicans, C. tropicalis; experiment: Terconazole in Maltose Broth, Group 2 co-culture: turbidity and Gram-stained smear; format: cell-based; design: key to Turbidity, Group 2: ++: The cultural fluid was heavily turbid; +: The cultural fluid was turbid; +/−: The turbidity of the cultural fluid was not affirmative; key to Microbes (Gram-stained smear), Group 2: Lb: Lactobacilli; Candida; conditions: 18 hours, 37° C., candle jar
Method: as §3, §4
as §2, with “2 ml Maltose” for “2ml Sucrose”, “Terconazole,” for “Fluconazole,”

[8] = system: L. jensenii, C. albicans, C. tropicalis; experiment: Terconazole in Maltose Broth, Group 3 co-culture: turbidity and Gram-stained smear; format: cell-based, Lactobacillus jensenii, Candida albicans, Candida tropicalis; design: key to Turbidity, Group 3: ++: The cultural fluid was heavily turbid; +: The cultural fluid was turbid; +/−: The turbidity of the cultural fluid was not affirmative; key to Microbes (Gram-stained smear), Group 3: Lb: Lactobacilli; Candida; conditions: 18 hours, 37° C., candle jar
Method: as §3, §4
as §2, with “2 ml Maltose” for “2ml Sucrose”, “Terconazole,” for “Fluconazole,”

[9] = system: C. albicans, C. tropicalis; experiment: Terconazole in Maltose Broth, Group 4 (Candidal group): turbidity and Gram-stained smear; format: cell-based, Candida albicans, Candida tropicalis; design: key to Turbidity, Group 4: ++: The cultural fluid was heavily turbid; +: The cultural fluid was turbid; +/−: The turbidity of the cultural fluid was not affirmative; conditions: 18 hours; for Turbidity, Group 4: 37° C., candle jar
Method: as §3, §4
as §2, with “2 ml Maltose” for “2ml Sucrose”, “Terconazole,” for “Fluconazole,”

[10] = system: three Lactobacillus strains; experiment: Terconazole in Maltose Broth: growth of the three Lactobacillus strains (Groups 1-3); format: cell-based; conditions: 400 ug/ml of Terconazole, 18 hours
Method: as §3, §4
as §2, with “2 ml Maltose” for “2ml Sucrose”, “Terconazole,” for “Fluconazole,”

With OC(Cn1cncn1)(Cn1cncn1)c1ccc(F)cc1F [Fluconazole] the “Microbes (Gram-stained smear), Group 1” value ([1]; Fluconazole 25 ug/ml) was “Lb”, the “Turbidity, Group 1” value ([1]; Fluconazole 25 ug/ml) was “++” and the “Microbes (Gram-stained smear), Group 1” value ([1]; Fluconazole 50 ug/ml) was “Lb”. For the same compound, the “Turbidity, Group 1” value ([1]; Fluconazole 50 ug/ml) was “++”, the “Microbes (Gram-stained smear), Group 1” value ([1]; Fluconazole 100 ug/ml) was “Lb” and the “Turbidity, Group 1” value ([1]; Fluconazole 100 ug/ml) was “++”. For the same compound, the “Microbes (Gram-stained smear), Group 1” value ([1]; Fluconazole 200 ug/ml) was “Lb”, the “Turbidity, Group 1” value ([1]; Fluconazole 200 ug/ml) was “++” and the “Microbes (Gram-stained smear), Group 1” value ([1]; Fluconazole 400 ug/ml) was “Lb”. For the same compound, the “Turbidity, Group 1” value ([1]; Fluconazole 400 ug/ml) was “++”, the “Microbes (Gram-stained smear), Group 2” value ([2]; Fluconazole 25 ug/ml) was “Lb” and the “Turbidity, Group 2” value ([2]; Fluconazole 25 ug/ml) was “++”. For the same compound, the “Microbes (Gram-stained smear), Group 2” value ([2]; Fluconazole 50 ug/ml) was “Lb”, the “Turbidity, Group 2” value ([2]; Fluconazole 50 ug/ml) was “++” and the “Microbes (Gram-stained smear), Group 2” value ([2]; Fluconazole 100 ug/ml) was “Lb”. The “Turbidity, Group 2” value ([2]; Fluconazole 100 ug/ml) was “++”, the “Microbes (Gram-stained smear), Group 2” value ([2]; Fluconazole 200 ug/ml) was “Lb” and the “Turbidity, Group 2” value ([2]; Fluconazole 200 ug/ml) was “++”. For the same compound, the “Microbes (Gram-stained smear), Group 2” value ([2]; Fluconazole 400 ug/ml) was “Lb”, the “Turbidity, Group 2” value ([2]; Fluconazole 400 ug/ml) was “++” and the “Microbes (Gram-stained smear), Group 3” value ([3]; Fluconazole 25 ug/ml) was “Lb”. The “Turbidity, Group 3” value ([3]; Fluconazole 25 ug/ml) was “++”, the “Microbes (Gram-stained smear), Group 3” value ([3]; Fluconazole 50 ug/ml) was “Lb” and the “Turbidity, Group 3” value ([3]; Fluconazole 50 ug/ml) was “++”. The “Microbes (Gram-stained smear), Group 3” value ([3]; Fluconazole 100 ug/ml) was “Lb”, the “Turbidity, Group 3” value ([3]; Fluconazole 100 ug/ml) was “++” and the “Microbes (Gram-stained smear), Group 3” value ([3]; Fluconazole 200 ug/ml) was “Lb”. For the same compound, the “Turbidity, Group 3” value ([3]; Fluconazole 200 ug/ml) was “++”, the “Microbes (Gram-stained smear), Group 3” value ([3]; Fluconazole 400 ug/ml) was “Lb” and the “Turbidity, Group 3” value ([3]; Fluconazole 400 ug/ml) was “++”. For the same compound, the “growth of the two Candidal strains” value ([4]; 25 ug/ml or greater concentration of Fluconazole) was “inhibited the growth”, the “Turbidity, Group 4” value ([4]; Fluconazole 25 ug/ml) was “+/−” and the “Turbidity, Group 4” value ([4]; Fluconazole 50 ug/ml) was “+/−”. The “Turbidity, Group 4” value ([4]; Fluconazole 100 ug/ml) was “+/−”, the “Turbidity, Group 4” value ([4]; Fluconazole 200 ug/ml) was “+/−” and the “Turbidity, Group 4” value ([4]; Fluconazole 400 ug/ml) was “+/−”. For the same compound, the “growth of three Lactobacillus strains” value [5] was “didn't inhibit the growth”.

In the case of CC(C)N1CCN(c2ccc(OCC3COC(Cn4cncn4)(c4ccc(Cl)cc4Cl)O3)cc2)CC1 (centres unmarked) [Terconazole], the “Microbes (Gram-stained smear), Group 1” value ([6]; Terconazole 25 ug/ml) is reported as “Lb”, the “Turbidity, Group 1” value ([6]; Terconazole 25 ug/ml) is reported as “++” and the “Microbes (Gram-stained smear), Group 1” value ([6]; Terconazole 50 ug/ml) is reported as “Lb”. For the same compound, the “Turbidity, Group 1” value ([6]; Terconazole 50 ug/ml) was “++”, the “Microbes (Gram-stained smear), Group 1” value ([6]; Terconazole 100 ug/ml) was “Lb” and the “Turbidity, Group 1” value ([6]; Terconazole 100 ug/ml) was “++”. For the same compound, the “Microbes (Gram-stained smear), Group 1” value ([6]; Terconazole 200 ug/ml) was “Lb”, the “Turbidity, Group 1” value ([6]; Terconazole 200 ug/ml) was “++” and the “Microbes (Gram-stained smear), Group 1” value ([6]; Terconazole 400 ug/ml) was “Lb”. For the same compound, the “Turbidity, Group 1” value ([6]; Terconazole 400 ug/ml) was “++”, the “Microbes (Gram-stained smear), Group 2” value ([7]; Terconazole 25 ug/ml) was “Lb” and the “Turbidity, Group 2” value ([7]; Terconazole 25 ug/ml) was “++”. The “Microbes (Gram-stained smear), Group 2” value ([7]; Terconazole 50 ug/ml) was “Lb”, the “Turbidity, Group 2” value ([7]; Terconazole 50 ug/ml) was “++” and the “Microbes (Gram-stained smear), Group 2” value ([7]; Terconazole 100 ug/ml) was “Lb”. The “Turbidity, Group 2” value ([7]; Terconazole 100 ug/ml) was “++”, the “Microbes (Gram-stained smear), Group 2” value ([7]; Terconazole 200 ug/ml) was “Lb” and the “Turbidity, Group 2” value ([7]; Terconazole 200 ug/ml) was “++”. The “Microbes (Gram-stained smear), Group 2” value ([7]; Terconazole 400 ug/ml) was “Lb”, the “Turbidity, Group 2” value ([7]; Terconazole 400 ug/ml) was “++” and the “Microbes (Gram-stained smear), Group 3” value ([8]; Terconazole 25 ug/ml) was “Lb”. For the same compound, the “Turbidity, Group 3” value ([8]; Terconazole 25 ug/ml) was “++”, the “Microbes (Gram-stained smear), Group 3” value ([8]; Terconazole 50 ug/ml) was “Lb” and the “Turbidity, Group 3” value ([8]; Terconazole 50 ug/ml) was “++”. The “Microbes (Gram-stained smear), Group 3” value ([8]; Terconazole 100 ug/ml) was “Lb”, the “Turbidity, Group 3” value ([8]; Terconazole 100 ug/ml) was “++” and the “Microbes (Gram-stained smear), Group 3” value ([8]; Terconazole 200 ug/ml) was “Lb”. For the same compound, the “Turbidity, Group 3” value ([8]; Terconazole 200 ug/ml) was “++”, the “Microbes (Gram-stained smear), Group 3” value ([8]; Terconazole 400 ug/ml) was “Lb” and the “Turbidity, Group 3” value ([8]; Terconazole 400 ug/ml) was “++”. For the same compound, the “growth of the two Candidal strains” value ([9]; 25 ug/ml or greater concentration of Terconazole) was “inhibited the growth”, the “Turbidity, Group 4” value ([9]; Terconazole 25 ug/ml) was “+/−” and the “Turbidity, Group 4” value ([9]; Terconazole 50 ug/ml) was “+/−”. For the same compound, the “Turbidity, Group 4” value ([9]; Terconazole 100 ug/ml) was “+/−”, the “Turbidity, Group 4” value ([9]; Terconazole 200 ug/ml) was “+/−” and the “Turbidity, Group 4” value ([9]; Terconazole 400 ug/ml) was “+/−”. For the same compound, the “growth of three Lactobacillus strains” value [10] was “didn't inhibit the growth”.
